# Laboratory results as given in US11198710B2, “Transgenic plant having herbicide resistance” (priority 2016, dated 2021).
# Assays:
# [1] = test system: OsGSTF5; assay: Pyroxasulfone metabolizing activity based on fatty acid content in cultured rice cells; assay type: cell-based; settings: cultured rice cells with OsGSTF5 gene; 10^−6 M treatment group
# Procedure: (§1) The transgenic cultured rice cells thus prepared were used for liquid culture in the presence of pyroxasulfone. Pyroxasulfone was added to the liquid medium as an acetone solution. The final acetone concentration was 0.1%. When liquid culture was carried out, cultured rice cells transformed with KLB-279 (a plasmid comprising Act1p (rice actin 1 promoter)::sGFP::NOSt incorporated into the MCS of PalSelect R-4) were designated as the control samples. Liquid culture was carried out as described below. […]
# (§2) Fatty acid was extracted using undecenoic acid (C11:1) as an internal standard. As analytical standards, Supelco FAME mix containing C14:0, C16:0, C16:1, C18:0, C18:1, C18:2, C18:3, C20:0, C22:0, C22:1, and C24:0 and other fatty acid methyl esters (C11:1, C15:0, C20:1, and C26:0) were used, and calibration curves thereof were prepared, followed by quantification. […] Quantitative and qualitative analyses were carried out as methyl esters, although fatty acid methyl esters were converted into fatty acids at the time of quantitative analysis. […]
# [2] = test system: OsGSTU5; assay: as above; assay type: cell-based; settings: cultured rice cells with OsGSTU5 gene; 10^−6 M treatment group
# Procedure: as §1, §2
# [3] = test system: wild-type Arabidopsis thaliana plant (Columbia-0); assay: Sensitivity of wild-type Arabidopsis thaliana to herbicides on MS agar medium; assay type: in vivo; settings: 22° C., 14 days
# Procedure: A medium was prepared as described below, so as to examine the pyroxasulfone resistance of the Arabidopsis thaliana plant comprising the TaQ8GTC0 gene introduced therein. At the outset, the Murashige-Skoog (MS) media (1 bag), thiamin hydrochloride (3 mg), nicotinic acid (5 mg), pyridoxin hydrochloride (0.5 mg), and sucrose (10 g) were added into a 1-liter beaker, a pH was adjusted to 5.7, the volume of the content was adjusted to 1 liter, and 8 g (0.8%) of agar was added. The resultant was autoclaved and cooled to room temperature, and pyroxasulfone (an acetone solution) was added thereto. A 30-ml fraction thereof was fractionated into a No. 2 square plate to prepare an MS medium containing pyroxasulfone at a given concentration.
# Pyroxasulfone sensitivity of transgenic Arabidopsis thaliana plants was tested with the use of the medium prepared above as described below. A necessary amount of Arabidopsis thaliana dry seeds was agitated in 70% ethanol for 2 minutes and in hypochlorous acid containing 0.02% Triton-X-100 for 15 minutes, followed by washing with sterile water 10 times. Subsequently, the seeds were suspended in 1 ml of the autoclaved 0.1% agar solution, the suspension was thoroughly mixed to prepare a homogeneous solution, and a total of 30 seeds were each placed on the medium surface. […]
smiles,measurement,setting,value
"Cn1nc(C(F)(F)F)c(CS(=O)(=O)C2=NOC(C)(C)C2)c1OC(F)F [Pyroxasulfone, 3-[5-(difluoromethoxy)-1-methyl-3-(trifluoromethyl)pyrazol-4-ylmethylsulfonyl]-4,5-dihydro-5,5-dimethyl-1,2-oxazole]",pyroxasulfone metabolizing activity (C15:0 and VLCFA contents),[1],no pyroxasulfone metabolizing activity
same,pyroxasulfone metabolizing activity (C15:0 and VLCFA contents),[2],no pyroxasulfone metabolizing activity
same,pyroxasulfone concentration at which growth was substantially completely inhibited,[3],≥ 1 µM
same,growth of the wild-type Arabidopsis thaliana plant,[3]; pyroxasulfone 100 nM,inhibited to some extent
